According to patent US20030032580A1, “Use of agonists or antagonists of the 5-HT7 receptor to treat disorders of the bladder” (Synaptic Pharmaceutical Corporation, priority 1999, published 2003):
Several values for one entry are separate records, joined by “and”; a condition that tells them apart may be missing. Equal values may be shown once.

Key:
[1] = tested on: rat urinary bladder strips; assay: Isolated rat urinary bladder strips: agonist-evoked increase of electrically evoked, nerve-mediated contractions; format: cell-based; settings: for effect on the magnitude of electrically evoked contractions: agonist alone, electrically stimulated rat bladder strips; for ability to modify the effects of 5-HT: 10 μM
From the text: 5-HT receptors in the rat urinary bladder which, when activated by serotonin agonists, cause increases in the magnitude of nerve-mediated contractions, were identified and characterized pharmacologically using isolated strips of rat bladder.
Urinary bladders were isolated from female CD rats (Charles Rivers, 250-300 g). The bladder base (lower third) was removed and the detrusor region was opened into a flat sheet by cutting from the basal opening to the apex. This was cut into quadrants, each of which was attached on its lateral edges by two tissue clips and suspended in a 5 ml tissue bath containing Krebs' solution (pH 7.4 37° C.) of the following composition (mM): NaCl (118), KCl (4.9), NaHCO3 (25), MgCl2 (1.2), NaHPO4 (1.0), CaCl2 (2.5), glucose (11) and aerated continuously with 95% O2/5% CO2. Except in initial experiments, prazosin (0.1 μM), idazoxan (0.3 μM), and indomethacin (10 μM) were included routinely in the buffer to block α1- and α2-adrenoceptors and to prevent the formation of prostaglandins, respectively. After allowing 30 min for equilibration, bladder strips were placed under 1.0 g resting tension, readjusted 6 times over the next 30 min. For most experiments contractile responses were evoked by transmural electrical impulses delivered by Grass S-88 (Grass Instruments, City, Mass.) stimulators (single pulses, 0.1 Hz, 1 ms pulse width, 90 V) through a pair of stainless steel electrodes. Contractions were measured using isometric force transducers (Radnotti Instruments, Monrovia, Calif.) and recorded using MacLab software (AD Instruments, Milford, Mass.).
Bladder strips, in Krebs' solution containing antagonist or vehicle, were stimulated at supramaximal voltage until contractions of consistent magnitude were obtained (ca. 30 min). During this period the Krebs' solution was exchanged at 15 min intervals. Cumulative concentration-effect curves were then constructed by administering 5-carboxamidotryptamine (5-CT) or other agonists in 0.5 log M increments. Responses are expressed as a percent of control, and represent agonist-evoked increases in the magnitude of the electrically evoked contractions relative to that in the absence of agonist (“control”, taken as 100%). […] Therefore, only a single agonist concentration-effect curve was constructed in each tissue.
Concentration-effect curves were fitted (Kaleidagraph, Synergy Software, PCS Inc., Reading PA) to 1-site or 2-site models of agonism as represented by the following equations:
(1-site): Effect=Emax[A]^n/[A]^n+EC50^n;
(2-site): Effect=(Emax^a[A]/[A]+EC50^a+(Emax^b[A]/[A]+EC50^b),
where Emax represents the maximum effect of the agonist, [A] is the agonist molar concentration, EC50 is the concentration of agonist eliciting half its maximum effect, n is the slope factor, and the italicized superscripts (a and b) denote values for the first and second phase of the biphasic curve. Antagonist pKB values were determined using the formula described by Furchgott (1972): pKB=log (agonist concentration ratio −1/antagonist concentration [M]. In some instances, pKB values were determined according to the method of Arunlakshana and Schild (1959), in which the slope of the Schild plot was constrained to unity. Concentration ratios for Schild analyses were calculated from mean EC50 values for the agonist in the absence and presence of the antagonist in experiments from n different animals.

5-HT2C = molecular target: T1, 5-HT2C (Homo sapiens, UniProt P28335); settings: Hoyer, 1989; Hoyer et al., 1994; cited from earlier work
T1 sequence (P28335 33-458): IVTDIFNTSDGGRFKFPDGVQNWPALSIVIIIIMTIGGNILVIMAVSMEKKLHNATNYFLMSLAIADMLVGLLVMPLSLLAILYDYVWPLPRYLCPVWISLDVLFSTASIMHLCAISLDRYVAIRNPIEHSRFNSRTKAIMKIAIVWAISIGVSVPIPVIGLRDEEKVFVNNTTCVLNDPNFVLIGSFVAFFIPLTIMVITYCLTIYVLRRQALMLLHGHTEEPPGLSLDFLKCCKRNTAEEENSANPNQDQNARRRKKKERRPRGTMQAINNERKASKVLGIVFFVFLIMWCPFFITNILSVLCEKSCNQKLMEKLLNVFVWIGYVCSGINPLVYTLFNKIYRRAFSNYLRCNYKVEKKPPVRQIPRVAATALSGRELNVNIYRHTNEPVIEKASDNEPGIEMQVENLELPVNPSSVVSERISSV

5-HT5A = settings: Hoyer et al., 1994; cited from earlier work
5-HT1B = 5-HT1B (Rattus norvegicus, UniProt P28564); settings: Hoyer, 1989; Hoyer et al., 1994; cited from earlier work
[2] = molecular target: T2, 5-HT7 receptor (first phase of the concentration-effect curve to 5-CT in the rat bladder) (Rattus norvegicus, UniProt P32305); assay: Electrically stimulated rat bladder strips: first (high potency) phase of the concentration-effect curve to 5-CT; format: cell-based; settings: for effect on high potency responses to 5-CT: pindolol 1 μM, tropisetron 10 μM, ketanserin 0.1 μM
T2 construct: from tissue; host or cells: rat urinary bladder detrusor strips

5-HT1D = settings: Hoyer, 1989; Hoyer et al., 1994; cited from earlier work
[3] = molecular target: cloned rat 5-HT2B receptor (Rattus norvegicus, UniProt P30994); settings: cited from earlier work
5-HT1A = molecular target: T3, 5-HT1A (Homo sapiens, UniProt P08908); settings: Hoyer, 1989; cited from earlier work
T3 sequence (P08908 1-422): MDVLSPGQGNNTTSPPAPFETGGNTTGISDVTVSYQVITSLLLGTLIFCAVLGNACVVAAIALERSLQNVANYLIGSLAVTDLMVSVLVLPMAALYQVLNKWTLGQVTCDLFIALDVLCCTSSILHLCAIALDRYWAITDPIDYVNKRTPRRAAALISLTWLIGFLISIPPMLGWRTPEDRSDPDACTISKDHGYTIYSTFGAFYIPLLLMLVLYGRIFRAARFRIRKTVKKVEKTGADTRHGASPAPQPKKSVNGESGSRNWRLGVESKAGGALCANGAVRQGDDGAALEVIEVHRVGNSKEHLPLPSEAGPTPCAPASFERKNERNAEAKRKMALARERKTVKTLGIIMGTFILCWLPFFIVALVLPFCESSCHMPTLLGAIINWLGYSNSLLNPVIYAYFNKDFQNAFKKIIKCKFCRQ

[4] = molecular target: cloned human 5-HT7 receptor (Homo sapiens, UniProt P34969); settings: cited from earlier work; for pK1: cloned human 5-HT7 receptor, references 1 and 4
[5] = molecular target: T4, 5-HT2B receptor (second phase of the concentration-effect curve to 5-CT in the rat bladder) (Rattus norvegicus, UniProt P30994); assay: Electrically stimulated rat bladder strips: second (low potency) phase of the concentration-effect curve to 5-CT; format: cell-based; settings: for effect on low potency responses to 5-CT: pindolol 1 μM, tropisetron 10 μM, ketanserin 0.1 μM
T4 construct: from tissue; host or cells: rat urinary bladder detrusor strips

5-HT2A = 5-HT2A (Homo sapiens, UniProt P28223); settings: Hoyer, 1989; Hoyer et al., 1994; cited from earlier work
5-HT1E = 5-HT1E (Homo sapiens, UniProt P28566); settings: Adham et al., 1993; cited from earlier work
5-HT1F = molecular target: T5, 5-HT1F (Homo sapiens, UniProt P30939); settings: Adham et al., 1993; cited from earlier work
T5 sequence (P30939 1-366): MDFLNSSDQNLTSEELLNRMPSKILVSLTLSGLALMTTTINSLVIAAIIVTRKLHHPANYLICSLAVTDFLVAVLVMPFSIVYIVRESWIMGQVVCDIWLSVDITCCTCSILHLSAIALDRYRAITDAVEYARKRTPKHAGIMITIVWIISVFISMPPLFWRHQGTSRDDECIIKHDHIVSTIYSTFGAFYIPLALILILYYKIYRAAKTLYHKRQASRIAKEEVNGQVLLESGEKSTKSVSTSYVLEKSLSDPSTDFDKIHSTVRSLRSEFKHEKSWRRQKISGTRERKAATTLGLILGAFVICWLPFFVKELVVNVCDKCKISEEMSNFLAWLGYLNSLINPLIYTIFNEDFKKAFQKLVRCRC

5-HT6 = 5-HT6 (Rattus norvegicus, UniProt P31388); settings: Hoyer et al., 1994; cited from earlier work
[6] = molecular target: cloned rat 5-HT7 receptor (Rattus norvegicus, UniProt P32305); settings: references 2 and 3; cited from earlier work
[7] = bladder pKB versus published value
[8] = bladder pKB versus published values

T4 sequence (P30994 whole entry): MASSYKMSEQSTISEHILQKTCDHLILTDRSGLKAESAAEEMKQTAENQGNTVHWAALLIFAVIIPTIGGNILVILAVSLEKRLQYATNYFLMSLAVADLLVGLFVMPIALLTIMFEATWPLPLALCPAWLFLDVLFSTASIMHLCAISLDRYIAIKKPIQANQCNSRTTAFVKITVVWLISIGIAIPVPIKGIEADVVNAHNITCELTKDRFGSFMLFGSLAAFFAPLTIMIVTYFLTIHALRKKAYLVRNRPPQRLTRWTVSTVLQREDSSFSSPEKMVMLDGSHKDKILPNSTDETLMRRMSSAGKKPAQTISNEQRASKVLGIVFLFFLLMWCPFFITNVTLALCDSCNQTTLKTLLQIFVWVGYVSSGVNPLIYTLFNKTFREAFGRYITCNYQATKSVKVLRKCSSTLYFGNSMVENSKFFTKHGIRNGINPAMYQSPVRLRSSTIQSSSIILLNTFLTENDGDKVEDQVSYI
Sequence of 5-HT1B (P28564 whole entry): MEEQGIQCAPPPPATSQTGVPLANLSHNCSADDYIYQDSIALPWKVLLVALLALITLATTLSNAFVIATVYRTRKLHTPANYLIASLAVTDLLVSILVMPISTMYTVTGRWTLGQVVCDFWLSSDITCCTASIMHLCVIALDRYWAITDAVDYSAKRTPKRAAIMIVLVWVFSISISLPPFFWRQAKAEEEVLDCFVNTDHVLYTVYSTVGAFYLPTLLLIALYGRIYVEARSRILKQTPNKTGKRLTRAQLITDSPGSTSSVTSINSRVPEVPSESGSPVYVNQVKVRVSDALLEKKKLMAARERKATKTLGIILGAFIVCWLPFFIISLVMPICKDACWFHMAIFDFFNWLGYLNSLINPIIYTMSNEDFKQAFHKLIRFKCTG
Sequence of cloned human 5-HT7 receptor (P34969 1-445 isoform P34969-2): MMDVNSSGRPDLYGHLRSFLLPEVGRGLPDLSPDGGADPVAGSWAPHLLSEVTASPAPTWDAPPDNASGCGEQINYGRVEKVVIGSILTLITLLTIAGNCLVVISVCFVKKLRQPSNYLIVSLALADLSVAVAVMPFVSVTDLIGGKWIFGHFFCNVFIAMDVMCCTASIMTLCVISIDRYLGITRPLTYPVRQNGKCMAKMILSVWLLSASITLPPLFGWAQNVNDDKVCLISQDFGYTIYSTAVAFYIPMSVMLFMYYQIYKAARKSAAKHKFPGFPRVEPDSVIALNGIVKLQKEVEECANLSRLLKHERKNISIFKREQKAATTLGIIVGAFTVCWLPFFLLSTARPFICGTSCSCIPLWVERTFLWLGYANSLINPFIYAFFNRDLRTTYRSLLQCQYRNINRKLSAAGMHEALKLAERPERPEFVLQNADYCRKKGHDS
Sequence of cloned rat 5-HT7 receptor (P32305 whole entry): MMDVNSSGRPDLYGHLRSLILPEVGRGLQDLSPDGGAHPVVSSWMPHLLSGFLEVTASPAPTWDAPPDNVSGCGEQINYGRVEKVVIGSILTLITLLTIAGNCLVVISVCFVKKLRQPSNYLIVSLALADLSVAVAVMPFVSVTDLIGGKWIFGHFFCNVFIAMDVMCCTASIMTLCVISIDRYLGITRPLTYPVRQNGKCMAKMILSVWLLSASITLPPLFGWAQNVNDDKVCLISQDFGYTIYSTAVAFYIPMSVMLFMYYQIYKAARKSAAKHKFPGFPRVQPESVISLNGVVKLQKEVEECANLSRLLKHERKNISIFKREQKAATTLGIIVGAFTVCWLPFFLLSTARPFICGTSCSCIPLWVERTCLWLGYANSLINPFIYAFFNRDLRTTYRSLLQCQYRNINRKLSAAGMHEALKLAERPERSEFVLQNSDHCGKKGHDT
T2 sequence (P32305 whole entry): as above
Sequence of cloned rat 5-HT2B receptor (P30994 whole entry): as the sequence (P30994 whole entry) above
Sequence of 5-HT2A (P28223 whole entry, species assumed): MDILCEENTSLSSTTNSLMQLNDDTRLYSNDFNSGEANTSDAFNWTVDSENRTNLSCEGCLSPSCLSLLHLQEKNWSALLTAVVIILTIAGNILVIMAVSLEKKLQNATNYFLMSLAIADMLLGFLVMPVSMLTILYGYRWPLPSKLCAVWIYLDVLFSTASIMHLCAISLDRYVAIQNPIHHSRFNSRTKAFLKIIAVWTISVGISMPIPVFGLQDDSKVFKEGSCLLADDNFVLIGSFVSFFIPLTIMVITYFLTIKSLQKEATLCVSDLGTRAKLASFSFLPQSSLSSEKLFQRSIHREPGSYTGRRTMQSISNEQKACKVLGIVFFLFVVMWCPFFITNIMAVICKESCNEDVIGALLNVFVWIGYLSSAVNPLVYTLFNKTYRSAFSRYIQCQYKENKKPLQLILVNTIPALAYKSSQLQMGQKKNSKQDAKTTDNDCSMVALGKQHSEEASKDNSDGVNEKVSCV
Sequence of 5-HT1E (P28566 whole entry): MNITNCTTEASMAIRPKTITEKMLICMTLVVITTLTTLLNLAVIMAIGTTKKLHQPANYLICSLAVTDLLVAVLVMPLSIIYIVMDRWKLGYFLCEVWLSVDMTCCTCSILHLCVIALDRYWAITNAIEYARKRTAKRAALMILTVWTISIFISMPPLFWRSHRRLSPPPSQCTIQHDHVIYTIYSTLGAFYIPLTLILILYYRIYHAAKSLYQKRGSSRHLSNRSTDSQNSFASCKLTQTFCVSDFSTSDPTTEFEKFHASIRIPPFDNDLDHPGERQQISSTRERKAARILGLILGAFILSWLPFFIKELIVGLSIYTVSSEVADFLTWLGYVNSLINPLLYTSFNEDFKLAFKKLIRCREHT
Sequence of 5-HT6 (P31388 whole entry): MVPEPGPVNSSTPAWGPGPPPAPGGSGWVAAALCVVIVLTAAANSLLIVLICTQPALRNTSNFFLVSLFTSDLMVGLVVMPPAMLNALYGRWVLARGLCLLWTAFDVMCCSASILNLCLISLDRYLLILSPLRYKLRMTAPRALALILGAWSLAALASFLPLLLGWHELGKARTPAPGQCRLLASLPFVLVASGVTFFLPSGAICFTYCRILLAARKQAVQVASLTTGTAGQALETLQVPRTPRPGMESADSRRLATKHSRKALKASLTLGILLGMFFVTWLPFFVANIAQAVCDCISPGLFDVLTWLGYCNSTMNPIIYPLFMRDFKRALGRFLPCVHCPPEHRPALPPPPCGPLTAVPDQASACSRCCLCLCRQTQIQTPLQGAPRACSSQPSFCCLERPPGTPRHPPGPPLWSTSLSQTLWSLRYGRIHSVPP

CC(N)Cc1c[nH]c2ccc(O)cc12 (stereo not drawn) [α-Me-5-HT, α-methyl-5-hydroxytryptamine]
effect on the magnitude of electrically evoked contractions [1]: mimicked

COc1ccc2[nH]cc(CCN)c2c1 [5-MeOT]
effect on the magnitude of electrically evoked contractions [1]: mimicked

O=C(CCCN1CCC2(CC1)C(=O)NCN2c1ccccc1)c1ccc(F)cc1 [spiperone]
pKB, 5-HT2C (5-HT2C): 5.9
pKB, 5-HT5A (5-HT5A): 5.6
pKB, 5-HT1B (5-HT1B): 4.4
first-phase affinity greater than that for the 5-HT2C receptor subtype [2, 7]: ~30 fold
first-phase affinity lower than that for the 5-HT2A receptor subtype [2, 7]: ~30 fold
first-phase affinity greater than that for 5-HT1B, 5-HT1D, 5-HT5A and 5-HT2B receptor subtype [2, 8]: at least 100 fold
pKB, 5-HT1D (5-HT1D): 4.8

c1ccc2c(N3CCNCC3)cccc2c1 [1-NP, 1-(1-naphthyl)piperazine]
pKB, 5-HT2B ([3]; Wainscott et al., 1993): 8.3
pK1 ([3]; cloned rat 5-HT2B receptor, reference 1 (Wainscott et al., 1993)): 8.3-8.7
pKB, 5-HT1A (5-HT1A): 7.2
pKB, 5-HT2C (5-HT2C): 8.2
pKB, 5-HT7 ([4]; Bard et al., 1993): 7.1
pK1 [4]: 7.1
pKB, 5-HT1B (5-HT1B): 6.6
Kb [5]: 3.16 nM
shift of the low potency (second) phase of the concentration-effect curve ([5]; 0.1 μM): 100 fold
second-phase affinity greater than affinity for 5-HT1A, 5-HT1B, 5-HT1E, 5-HT2A and 5-HT7 subtypes [5, 8]: at least 10 fold
slope of Schild analysis ([5]; second phase, 0.01 to 1.0 μM): unit slope
effect on the high potency (first) phase of the curve ([2]; 0.1 μM): no effect
rightward shift of the first phase of the response to 5-CT ([2]; 1.0 μM): 6.8 ±0.54 fold
Kb ([2]; pKB, inhibition of the first phase of the concentration-effect curve to 5-CT in the rat bladder, antagonists tested in the presence of 0.1 μM 1-NP): 158 nM and 251 nM
pKB, 5-HT2A (5-HT2A): 7.2
pKB, 5-HT1E (5-HT1E): 6.7

CC(C)n1c(=O)n(C(=O)NC2CC3CCC(C2)N3C)c2ccccc21 (stereo not shown) [BIMU-8]
ability to modify the effects of 5-HT [1]: failure
effect on the magnitude of electrically evoked contractions [1]: inactive

CN1C[C@@H](NS(=O)(=O)N(C)C)C[C@@H]2c3cccc4c3c(cn4C)C[C@H]21 [mesulergine]
pKB, 5-HT1A (5-HT1A): 6.2
pKB, 5-HT1F (5-HT1F): < 5
pKB, 5-HT1B (5-HT1B): 4.9
pKB, 5-HT6 (5-HT6): 5.8
pKB, 5-HT2A (5-HT2A): 9.1

NCCc1c[nH]c2ccc(O)cc12 [5-HT, 5-hydroxytryptamine]
effect on the magnitude of electrically evoked contractions [1]: marked increases

CC(C)n1cc2c3c(cccc31)C1C[C@@H](C(=O)N[C@H]3CCC[C@H]3O)CN(C)[C@@H]1C2 (stereo partly shown) [LY215840]
pK1 [4]: 7.8
pKB ([2]; inhibition of the first phase of the concentration-effect curve to 5-CT in the rat bladder, antagonists tested in the presence of 0.1 μM 1-NP): 8.2

CC(C)NCC(O)COc1cccc2[nH]ccc12 (single isomer, unassigned) [pindolol]
effect on low potency responses to 5-CT [5]: not affected
effect on high potency responses to 5-CT [2]: not affected
pK1 [6]: <6

CCCN(CCC)C1CCc2cccc(O)c2C1 (stereo not shown) [8-OH-DPAT]
ability to modify the effects of 5-HT [1]: failure
effect on the magnitude of electrically evoked contractions [1]: inactive

O=C(c1ccc(F)cc1)C1CCN(CCn2c(=O)[nH]c3ccccc3c2=O)CC1 [ketanserin]
effect on low potency responses to 5-CT [5]: not affected
effect on high potency responses to 5-CT [2]: not affected
pK1 [6]: 5.6

CN1[C@@H]2CC[C@H]1C[C@@H](OC(=O)c1c[nH]c3ccccc13)C2 [tropisetron]
effect on low potency responses to 5-CT [5]: not affected
effect on high potency responses to 5-CT [2]: not affected
pK1 [6]: <4.5

CSc1ccc2c(c1)C(N1CCN(C)CC1)Cc1ccccc1S2 (stereo not shown) [methiothepin]
pKB, 5-HT1F (5-HT1F): 6.2
pKB, 5-HT5A (5-HT5A): 7.0
pKB, 5-HT1B (5-HT1B): 7.3
pKB, 5-HT1D (5-HT1D): 7.3
pKB, 5-HT1E (5-HT1E): 6.7

CCCN(CCC)CCc1c[nH]c2ccc(C(N)=O)cc12 [DP-5-CT]
effect on the magnitude of electrically evoked contractions [1]: mimicked
